According to article PMC8414367, “(E)-7-Ethylidene-lithocholic Acid (7-ELCA) Is a Potent Dual Farnesoid X Receptor (FXR) Antagonist and GPBAR1 Agonist Inhibiting FXR-Induced Gene Expression in Hepatocytes and Stimulating Glucagon-like Peptide-1 Secretion From Enteroendocrine Cells” (Frontiers in Pharmacology, 2021):
“Also recorded” adds a separate entry of the source. Read-outs that look alike come from different tables or passages of the source.

Tests used:
PPARα = PPARα (Homo sapiens, UniProt Q07869); assay: Nuclear receptor specificity luciferase reporter assay in HepG2 cells
PPARα, sequence (Q07869 239-466 limits assumed): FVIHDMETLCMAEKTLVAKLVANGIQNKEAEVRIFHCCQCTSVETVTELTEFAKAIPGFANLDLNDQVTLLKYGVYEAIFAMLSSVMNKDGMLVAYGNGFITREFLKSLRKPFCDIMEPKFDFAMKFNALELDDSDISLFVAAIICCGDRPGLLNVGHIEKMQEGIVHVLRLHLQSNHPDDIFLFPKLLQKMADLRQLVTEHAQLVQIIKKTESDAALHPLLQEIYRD
Method: (§2) For transient transfection, HepG2 cells were seeded at the density of 40,000 cells/cm^2. […] The next day, cells were challenged with tested ligands in indicated concentrations for 5 h. […] All the other transient transfection reporter gene assays were performed with Lipofectamine® 3000 (ThermoFisher Scientific). Briefly, cells were transfected with 150 ng/well luciferase reporter gene constructs (p(DR3)3-luc, SHP-luc, p3A4-luc, pTAT-(GRE)2-TK-luc, p2B6-luc, pGL4.35[luc2P⁄9XGAL4UAS⁄Hygro]), FXRE-luc together with 100 ng/well of the corresponding full-length fragment nuclear receptor expression vectors (pSG5-hVDR, pSG5-hFXR, pSG5-hRXRα, pSG5-hPXR, CAR3 variant) or the ligand binding domains of human, pCMX-GAL4-hFXR, pCMX-GA4L-LXRα, pCMX-GA4L-LXRα, pCMX-GA4L-TRα, pCMX-GA4L-PPARα, pCMX-GAL4-PPARγ, pCMX-GAL4-PPARδ) and 30 ng/well of pRL-TK Renilla luciferase vector 24 h prior to the treatment. […] The firefly luciferase activity was measured using the Dual Luciferase® Reporter Assay System (Promega) and normalized to Renilla luciferase activity. Experiments in an agonistic mode were performed with OCA, CDCA or tested compounds (all compounds at 10 μM). […] EC50 and IC50 were calculated using GraphPad PRISM ver. […]
(§3) Data were normalized to Renilla luciferase activity and are expressed as fold activation relative to control (nontreated, NT) cells. […]

[1] = target: pregnane X receptor (PXR) (Homo sapiens, UniProt O75469); assay: Nuclear receptor specificity luciferase reporter assay in HepG2 cells
pregnane X receptor (PXR), sequence (O75469 whole entry): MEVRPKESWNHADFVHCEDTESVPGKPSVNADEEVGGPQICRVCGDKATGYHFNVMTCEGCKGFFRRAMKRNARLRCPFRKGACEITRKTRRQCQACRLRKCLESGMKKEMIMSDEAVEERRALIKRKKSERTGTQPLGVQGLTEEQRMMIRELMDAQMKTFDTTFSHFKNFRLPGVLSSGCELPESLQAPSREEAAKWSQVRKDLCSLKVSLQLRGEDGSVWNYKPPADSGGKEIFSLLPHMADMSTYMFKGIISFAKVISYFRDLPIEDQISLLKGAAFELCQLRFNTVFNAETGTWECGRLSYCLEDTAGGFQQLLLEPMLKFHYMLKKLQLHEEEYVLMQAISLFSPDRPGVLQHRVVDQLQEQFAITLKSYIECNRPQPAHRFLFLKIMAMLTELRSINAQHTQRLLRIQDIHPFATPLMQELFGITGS
Method: as §2, §3

GLUTag cells = assay: GLP-1 secretion in siRNA control or Gpbar1 siRNA transfected GLUTag cells; format: cell-based, murine; settings: 10 µM, 1 h
Method: GLUTag cells were transfected with non-targeting scrambled siRNA (siRNA control) or with the combination of siRNAs specific for Gpbar1 (Silencer® Select Pre-designed siRNA, LOT# ASO2HKN6 and ASO2HKN7, Life Technologies, Carlsbad, CA, United States) twice at 24 and 72 h after seeding using Lipofectamine RNAiMAX reagent (Life Technologies, Carlsbad, CA, United States). GLUTag cells were then treated with tested molecules at the day 4 post-seeding.
(§1) FIGURE 8 Effects of 7-alkylated derivatives of CDCA and 7-ELCA on the membrane receptor GPBAR1. […] . (B) CRE-luc activation depends on the presence of GPBAR1. (C) Effects of LCA and 7-ELCA (both at 10 µM) on intracellular generation of cAMP in differentiated NCI-H716 cells after 30 min treatment. The increase in cAMP level (ΔcAMP) is presented as the difference between cAMP concertation in the treated sample after subtraction of the cAMP in the nontreated control sample. (D) Concentration-response curves for activation of GPBAR1 by LCA and 7-ELCA. EC50 values were calculated using nonlinear fitting of concentration-response curves. […] (G) 7-ELCA (10 µM) increases GLP-1 secretion in siRNA control but not in siRNA Gpbar1 transfected GLUTag cells after 1 h treatment. GLP-1 was normalized to protein concentration and GPBAR1 mRNA expression to GAPDH mRNA. Data are presented as a fold to control nontreated (NT) samples. […]

NCI-H716 cells [2] = assay: GLP-1 secretion (ELISA) in differentiated NCI-H716 cells; format: cell-based, human; settings: 10 µM, 2 h, listed as 7-ELCA
FXR LBD = target: T1, FXR LBD (Homo sapiens, UniProt Q96RI1); assay: LanthaScreen TR-FRET FXR Coactivator Assay, antagonistic mode (SRC-2 peptide recruitment); format: biochemical
T1 construct: purchased ThermoFisher Scientific PV4833
T1 sequence (Q96RI1 262-486 limits assumed): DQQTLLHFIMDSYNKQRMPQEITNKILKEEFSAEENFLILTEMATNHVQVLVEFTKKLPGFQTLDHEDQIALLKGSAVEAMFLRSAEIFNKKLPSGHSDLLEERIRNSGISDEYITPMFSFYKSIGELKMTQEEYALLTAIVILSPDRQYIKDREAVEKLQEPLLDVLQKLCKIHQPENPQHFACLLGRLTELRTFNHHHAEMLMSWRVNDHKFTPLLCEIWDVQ
Method: The LanthaScreen® TR-FRET FXR Coactivator Assay (goat, PV4833, ThermoFisher Scientific) was performed to assess the affinity of tested compounds to FXR ligand-binding domain (LBD) in agonistic and antagonistic models. In the antagonistic assays, the FXR LBD was co-incubated with OCA or GW4064, together with tested ligands in increasing concentrations. The assay was performed according to the manufacturer’s protocols. […] Data have been obtained from three independent experiments performed in 4 replicates.

NCI-H716 cells [3] = assay: cAMP determination (cAMP-Glo) in differentiated NCI-H716 cells; format: cell-based, human; settings: 10 µM, 30 min, compared to 10 µM LCA
Method: Differentiated NCI-H716 cells were serum-starved, washed in PBS, and the cell culture medium was changed to Hanks' Balanced Salt solution (HBSS) supplemented with 0.2% (w/v) BSA and 500 µM 3-isobutyl-1-methylxanthine and incubated for 45 min at 37°C. Cells were stimulated with tested compounds or forskolin for 30 min, and the amount of cAMP generated was measured using the cAMP-Glo™ Assay (V1501, Promega, […], United States). The changes in cAMP levels (ΔcAMP) are presented as cAMP levels in treated samples after subtraction of the cAMP levels in the nontreated (NT) samples.
as §1, with “treatment.” for “treatment. GLP-1 was normalized to protein concentration and GPBAR1 mRNA expression to GAPDH mRNA. Data are presented as a fold to control nontreated (NT) samples.”

thyroid receptor (TRα) = thyroid receptor (TRα) (Homo sapiens, UniProt P10827); assay: Nuclear receptor specificity luciferase reporter assay in HepG2 cells
thyroid receptor (TRα), sequence (P10827 163-410 isoform P10827-2 limits assumed): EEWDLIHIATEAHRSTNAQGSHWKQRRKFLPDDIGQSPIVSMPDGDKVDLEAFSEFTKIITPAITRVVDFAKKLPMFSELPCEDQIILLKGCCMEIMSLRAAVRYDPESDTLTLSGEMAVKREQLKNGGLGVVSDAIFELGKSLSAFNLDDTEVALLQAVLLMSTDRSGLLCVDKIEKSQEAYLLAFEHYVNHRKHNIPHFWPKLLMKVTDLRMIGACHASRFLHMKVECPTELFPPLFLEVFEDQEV

GPBAR1 Ser270Gly = target: T2, GPBAR1 Ser270Gly (Homo sapiens, UniProt Q8TDU6, S270G); assay: CRE-luc reporter assay with mutated GPBAR1 variant in HepG2 cells; format: cell-based
T2 construct: expressed in transfected cells; host or cells: HepG2
T2 sequence (Q8TDU6 whole entry S270G): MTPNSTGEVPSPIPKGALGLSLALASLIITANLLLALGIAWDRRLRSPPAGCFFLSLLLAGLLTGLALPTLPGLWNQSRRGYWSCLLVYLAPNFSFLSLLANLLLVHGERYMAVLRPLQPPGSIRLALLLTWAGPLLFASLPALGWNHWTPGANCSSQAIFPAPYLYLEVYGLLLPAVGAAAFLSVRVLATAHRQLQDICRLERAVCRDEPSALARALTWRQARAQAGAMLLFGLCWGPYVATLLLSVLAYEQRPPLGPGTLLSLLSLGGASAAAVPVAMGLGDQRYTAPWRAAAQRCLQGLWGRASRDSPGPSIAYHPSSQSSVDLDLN

GPBAR1 = target: T3, GPBAR1 (Homo sapiens, UniProt Q8TDU6); assay: GPBAR1 CRE-luc luciferase reporter assay in HepG2 cells; format: cell-based; settings: for CRE-luc activation compared to LCA (in words): 10 µM, 5 h, LCA 10 µM set as 100%
T3 construct: host or cells: HepG2
T3 sequence (Q8TDU6 1-330): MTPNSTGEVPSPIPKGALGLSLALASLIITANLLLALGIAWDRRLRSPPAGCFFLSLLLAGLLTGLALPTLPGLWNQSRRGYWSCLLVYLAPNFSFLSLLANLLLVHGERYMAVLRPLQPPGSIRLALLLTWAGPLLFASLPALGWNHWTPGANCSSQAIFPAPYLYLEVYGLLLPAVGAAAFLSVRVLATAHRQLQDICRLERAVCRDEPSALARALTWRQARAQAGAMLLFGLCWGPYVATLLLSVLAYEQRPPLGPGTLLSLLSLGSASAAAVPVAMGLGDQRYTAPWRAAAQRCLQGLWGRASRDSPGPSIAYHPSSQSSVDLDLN
Method: (C) Effects of LCA and 7-ELCA (both at 10 µM) on intracellular generation of cAMP in differentiated NCI-H716 cells after 30 min treatment. The increase in cAMP level (ΔcAMP) is presented as the difference between cAMP concertation in the treated sample after subtraction of the cAMP in the nontreated control sample. (D) Concentration-response curves for activation of GPBAR1 by LCA and 7-ELCA. EC50 values were calculated using nonlinear fitting of concentration-response curves. […] GLP-1 was normalized to protein concentration and GPBAR1 mRNA expression to GAPDH mRNA. Data are presented as a fold to control nontreated (NT) samples. Forskolin (FSK, 10 µM) was used as a GPBAR1-independent activator of cAMP production.

[4] = GW4064 1 µM, read-out: IC50, inhibition of GW4064-promoted interaction of SRC-2 and FXR
[5] = OCA 1 µM, read-out: IC50, inhibition of OCA-induced recruitment of SRC-2 to FXR LBD

With C/C=C1\C[C@@H]2C[C@H](O)CC[C@]2(C)[C@H]2CC[C@]3(C)[C@@H]([C@H](C)CCC(=O)O)CC[C@H]3[C@H]12 [2a, (E)-3α-Hydroxy-7-ethylidene-5β-cholan-24-oic acid] the “antagonism of PPARα activation by model ligand” value (PPARα; 10 µM, with fenofibrate 1 µM) was “did not antagonize”, the “activation of PPARα” value (PPARα; agonistic assay, 24 h) was “did not activate” and the melting point was 67 to 72 °C. The “antagonism of PXR activation by model ligand” value ([1]; 10 µM, with rifampicin 1 µM) was “did not antagonize”, the “activation of PXR” value ([1]; agonistic assay, 24 h) was “did not activate” and the GLP-1 secretion (GLUTag cells; Gpbar1 siRNA transfected GLUTag cells) was “did not lead to the significantly increased GLP-1 production”. For the same compound, the GLP-1 secretion (GLUTag cells; siRNA control GLUTag cells) was “significant increase of the GLP-1 secretion”, the GLP-1 secretion (NCI-H716 cells [2]) was “significant increase of GLP-1 secretion; also recorded: significantly stronger compared to LCA” and the IC50 (FXR LBD; [4]) was 6.6 ± 2.9 µM. For the same compound, the IC50 (FXR LBD; [5]) was 18 ± 2.7 µM, the “intracellular generation of cAMP” value (NCI-H716 cells [3]) was “more significant production of cAMP” and the “antagonism of TRα activation by model ligand” value (thyroid receptor (TRα); 10 µM, with thyroxin 1 µM) was “did not antagonize”. The “activation of TRα” value (thyroid receptor (TRα); agonistic assay, 24 h) was “did not activate”, the “CRE-luc activation via GPBAR1 Ser270Gly” value (GPBAR1 Ser270Gly) was “partially preserved” and the “CRE-luc activation compared to LCA (in words)” value (GPBAR1) was “significantly increase CRE-luc activation more than LCA”. For the same compound, the EC50 (GPBAR1; abstract, read-out: EC50, GPBAR1 agonist) was 0.026 µM.
CCC[C@@]1(O)C[C@@H]2C[C@H](O)CC[C@]2(C)C2CC[C@@]3(C)C(CC[C@@H]3[C@H](C)CCC(=O)O)C21 (stereo partly drawn) [2f, 3α,7α-Dihydroxy-7β-propyl-5β-cholan-24-oic acid] showed a melting point of 100 to 105 °C, an IC50 (FXR LBD; [4]) of 13.8 ± 2.5 µM and an IC50 (FXR LBD; [5]) of 26.5 ± 2 µM. For the same compound, the “CRE-luc activation compared to LCA (in words)” value (GPBAR1) was “comparable activities to LCA”.
